Laboratory results taken from the NIST ThermoML archive (doi:10.1021/je200811n).

Conditions: Hot wire method

C=C(F)C(F)(F)F [2,3,3,3-tetrafluoro-1-propene]
Conditions | thermal conductivity [W/m/K]
272.85 K, 247 kPa, Gas | 0.01156
272.89 K, 200 kPa, Gas | 0.01156
272.97 K, 145 kPa, Gas | 0.0116
273.04 K, 106 kPa, Gas | 0.01162
273.14 K, 261 kPa, Gas | 0.01159
273.17 K, 273 kPa, Gas | 0.01162
273.19 K, 247 kPa, Gas | 0.01159
273.26 K, 200 kPa, Gas | 0.0116
273.35 K, 144 kPa, Gas | 0.01162
273.44 K, 105 kPa, Gas | 0.01163
273.46 K, 258 kPa, Gas | 0.01159
273.55 K, 274 kPa, Gas | 0.01163
273.58 K, 248 kPa, Gas | 0.01163
273.64 K, 200 kPa, Gas | 0.0116
273.76 K, 142 kPa, Gas | 0.01165
273.82 K, 255 kPa, Gas | 0.01165
273.87 K, 104 kPa, Gas | 0.01165
274.2 K, 253 kPa, Gas | 0.01169
281.36 K, 838 kPa, Liquid | 0.06988
281.38 K, 860 kPa, Liquid | 0.06977
281.41 K, 5779 kPa, Liquid | 0.07285
281.44 K, 10941 kPa, Liquid | 0.07602
281.46 K, 841 kPa, Liquid | 0.06981
281.48 K, 862 kPa, Liquid | 0.06968
281.51 K, 5779 kPa, Liquid | 0.07276
281.54 K, 10939 kPa, Liquid | 0.07609
281.66 K, 86 kPa, Gas | 0.01256
281.66 K, 204 kPa, Gas | 0.01278
281.79 K, 859 kPa, Liquid | 0.06833
281.83 K, 10935 kPa, Liquid | 0.07514
281.88 K, 202 kPa, Gas | 0.01259
281.89 K, 87 kPa, Gas | 0.01239
281.89 K, 843 kPa, Liquid | 0.06853
281.93 K, 861 kPa, Liquid | 0.06844
281.93 K, 5767 kPa, Liquid | 0.07189
281.94 K, 10934 kPa, Liquid | 0.07471
281.98 K, 15950 kPa, Liquid | 0.07767
282.01 K, 15964 kPa, Liquid | 0.07708
282.11 K, 200 kPa, Gas | 0.0125
282.13 K, 88 kPa, Gas | 0.01231
282.23 K, 841 kPa, Liquid | 0.06878
282.25 K, 20590 kPa, Liquid | 0.0797
282.26 K, 866 kPa, Liquid | 0.06872
282.26 K, 5764 kPa, Liquid | 0.07204
282.26 K, 10935 kPa, Liquid | 0.07477
282.27 K, 15954 kPa, Liquid | 0.07706
282.31 K, 15965 kPa, Liquid | 0.0773
282.35 K, 198 kPa, Gas | 0.01243
282.38 K, 90 kPa, Gas | 0.01224
282.4 K, 841 kPa, Liquid | 0.06858
282.4 K, 5763 kPa, Liquid | 0.07193
282.4 K, 10935 kPa, Liquid | 0.07479
282.41 K, 864 kPa, Liquid | 0.0687
282.41 K, 15954 kPa, Liquid | 0.07738
282.44 K, 15967 kPa, Liquid | 0.07756
282.56 K, 395 kPa, Gas | 0.01244
282.61 K, 196 kPa, Gas | 0.01241
282.61 K, 308 kPa, Gas | 0.01242
282.64 K, 91 kPa, Gas | 0.01218
282.66 K, 20587 kPa, Liquid | 0.07986
282.71 K, 204 kPa, Gas | 0.0124
282.74 K, 5763 kPa, Liquid | 0.07185
282.74 K, 10939 kPa, Liquid | 0.07487
282.74 K, 15951 kPa, Liquid | 0.07763
282.75 K, 834 kPa, Liquid | 0.06855
282.77 K, 860 kPa, Liquid | 0.06866
282.77 K, 15964 kPa, Liquid | 0.07774
282.81 K, 20585 kPa, Liquid | 0.07986
282.87 K, 396 kPa, Gas | 0.01251
282.89 K, 10938 kPa, Liquid | 0.07473
282.9 K, 15949 kPa, Liquid | 0.07751
282.92 K, 87 kPa, Gas | 0.01242
282.92 K, 5765 kPa, Liquid | 0.07169
282.93 K, 832 kPa, Liquid | 0.06832
282.93 K, 15964 kPa, Liquid | 0.07755
282.94 K, 309 kPa, Gas | 0.01248
282.96 K, 859 kPa, Liquid | 0.06843
283.07 K, 203 kPa, Gas | 0.01237
283.22 K, 396 kPa, Gas | 0.01252
283.24 K, 15950 kPa, Liquid | 0.07752
283.25 K, 10936 kPa, Liquid | 0.07481
283.26 K, 15963 kPa, Liquid | 0.07747
283.26 K, 20587 kPa, Liquid | 0.07981
283.28 K, 5763 kPa, Liquid | 0.07184
283.3 K, 309 kPa, Gas | 0.01244
283.3 K, 832 kPa, Liquid | 0.06845
283.33 K, 86 kPa, Gas | 0.01249
283.33 K, 857 kPa, Liquid | 0.0685
283.43 K, 15951 kPa, Liquid | 0.07738
283.45 K, 10934 kPa, Liquid | 0.07455
283.45 K, 20590 kPa, Liquid | 0.07959
283.46 K, 201 kPa, Gas | 0.01238
283.46 K, 15962 kPa, Liquid | 0.07733
283.49 K, 5765 kPa, Liquid | 0.07154
283.53 K, 830 kPa, Liquid | 0.06815
283.56 K, 855 kPa, Liquid | 0.06813
283.59 K, 396 kPa, Gas | 0.01244
283.69 K, 309 kPa, Gas | 0.01251
283.75 K, 88 kPa, Gas | 0.0125
283.88 K, 199 kPa, Gas | 0.01243
283.93 K, 20590 kPa, Liquid | 0.07977
283.98 K, 395 kPa, Gas | 0.01256
284.1 K, 309 kPa, Gas | 0.01245
284.15 K, 20592 kPa, Liquid | 0.07943
284.2 K, 89 kPa, Gas | 0.01254
284.31 K, 197 kPa, Gas | 0.01245
284.67 K, 91 kPa, Gas | 0.01256
291.15 K, 109 kPa, Gas | 0.01341
291.17 K, 246 kPa, Gas | 0.01364
291.37 K, 109 kPa, Gas | 0.01324
291.37 K, 244 kPa, Gas | 0.01349
291.59 K, 242 kPa, Gas | 0.01339
291.6 K, 109 kPa, Gas | 0.01311
291.83 K, 240 kPa, Gas | 0.01331
291.85 K, 109 kPa, Gas | 0.01303
292.07 K, 238 kPa, Gas | 0.01328
292.07 K, 432 kPa, Gas | 0.01333
292.1 K, 109 kPa, Gas | 0.01299
292.1 K, 342 kPa, Gas | 0.01323
292.36 K, 109 kPa, Gas | 0.0132
292.39 K, 429 kPa, Gas | 0.01328
292.43 K, 342 kPa, Gas | 0.01327
292.51 K, 245 kPa, Gas | 0.01312
292.67 K, 538 kPa, Gas | 0.01326
292.73 K, 428 kPa, Gas | 0.01333
292.74 K, 109 kPa, Gas | 0.01324
292.78 K, 343 kPa, Gas | 0.01325
292.88 K, 243 kPa, Gas | 0.01315
293.03 K, 536 kPa, Gas | 0.01339
293.08 K, 428 kPa, Gas | 0.01323
293.14 K, 109 kPa, Gas | 0.01331
293.15 K, 343 kPa, Gas | 0.01331
293.28 K, 241 kPa, Gas | 0.01321
293.38 K, 532 kPa, Gas | 0.01333
293.46 K, 428 kPa, Gas | 0.01337
293.55 K, 343 kPa, Gas | 0.01331
293.57 K, 109 kPa, Gas | 0.01327
293.7 K, 239 kPa, Gas | 0.01323
294.03 K, 109 kPa, Gas | 0.01333
301.39 K, 199 kPa, Gas | 0.01436
301.41 K, 95 kPa, Gas | 0.01419
301.62 K, 199 kPa, Gas | 0.0142
301.64 K, 95 kPa, Gas | 0.01403
301.86 K, 199 kPa, Gas | 0.0141
301.88 K, 95 kPa, Gas | 0.01395
301.95 K, 868 kPa, Liquid | 0.06212
301.98 K, 5731 kPa, Liquid | 0.06593
302.03 K, 10752 kPa, Liquid | 0.06904
302.06 K, 867 kPa, Liquid | 0.06223
302.08 K, 16026 kPa, Liquid | 0.07261
302.09 K, 5728 kPa, Liquid | 0.0658
302.11 K, 199 kPa, Gas | 0.01401
302.13 K, 10752 kPa, Liquid | 0.06936
302.14 K, 95 kPa, Gas | 0.01385
302.16 K, 648 kPa, Gas | 0.0142
302.18 K, 16021 kPa, Liquid | 0.0724
302.26 K, 510 kPa, Gas | 0.01411
302.37 K, 199 kPa, Gas | 0.01396
302.38 K, 350 kPa, Gas | 0.01405
302.42 K, 95 kPa, Gas | 0.01379
302.43 K, 868 kPa, Liquid | 0.06253
302.45 K, 5727 kPa, Liquid | 0.06616
302.47 K, 10752 kPa, Liquid | 0.06961
302.48 K, 635 kPa, Gas | 0.01423
302.5 K, 16022 kPa, Liquid | 0.07296
302.54 K, 20560 kPa, Liquid | 0.07444
302.56 K, 199 kPa, Gas | 0.01413
302.58 K, 865 kPa, Liquid | 0.06226
302.58 K, 5727 kPa, Liquid | 0.06624
302.59 K, 510 kPa, Gas | 0.01416
302.6 K, 10751 kPa, Liquid | 0.06953
302.62 K, 16020 kPa, Liquid | 0.0724
302.66 K, 20555 kPa, Liquid | 0.07461
302.74 K, 350 kPa, Gas | 0.01409
302.78 K, 95 kPa, Gas | 0.01418
302.82 K, 634 kPa, Gas | 0.01428
302.93 K, 199 kPa, Gas | 0.01415
302.94 K, 510 kPa, Gas | 0.01416
302.96 K, 5727 kPa, Liquid | 0.06618
302.96 K, 10747 kPa, Liquid | 0.06954
302.97 K, 16018 kPa, Liquid | 0.07247
302.98 K, 865 kPa, Liquid | 0.0622
303.01 K, 20553 kPa, Liquid | 0.07485
303.11 K, 350 kPa, Gas | 0.01412
303.13 K, 5725 kPa, Liquid | 0.06595
303.13 K, 10746 kPa, Liquid | 0.06929
303.13 K, 16018 kPa, Liquid | 0.0723
303.15 K, 20550 kPa, Liquid | 0.07489
303.16 K, 864 kPa, Liquid | 0.0621
303.17 K, 638 kPa, Gas | 0.01429
303.31 K, 509 kPa, Gas | 0.01414
303.33 K, 199 kPa, Gas | 0.01417
303.5 K, 16015 kPa, Liquid | 0.07239
303.51 K, 350 kPa, Gas | 0.01407
303.51 K, 10746 kPa, Liquid | 0.06924
303.51 K, 20552 kPa, Liquid | 0.07485

Liquid
Conditions | thermal conductivity [W/m/K]
273.15 K | 0.07159
283.15 K | 0.06833
293.15 K | 0.06515
303.15 K | 0.06204
